Reference: patent US20240207258A1, “HETEROCYCLIC PDK1 INHIBITORS FOR USE TO TREAT CANCER” (Viracta Therapeutics, Inc., priority 2015, published 2024)

Assays:
Molm-13 = experiment: MTS cell proliferation assay, Molm-13; type: cell-based; details: Homo sapiens; Molm-13, 72 hr
Experimental: (§1) Cell proliferation was measured using the CellTiter 96 Aqueous Non-Radioactive Cell Proliferation Assay (Promega). The CellTiter 96® AQueous Assay is composed of solutions of a tetrazolium compound [3-(4,5-dimethylthiazol-2-yl)-5-(3-carboxymethoxyphenyl)-2-(4-sulfophenyl)-2H-tetrazolium, inner salt; MTS] and an electron coupling reagent (phenazine methosulfate) PMS. MTS is bioreduced by cells into a formazan product that is soluble in tissue culture medium. The absorbance of the formazan product at 490 nm can be measured directly from assay plates without additional processing. The quantity of formazan product as measured by the amount of 490 nm absorbance is directly proportional to the number of living cells in culture. Cells were seeded into 96-well or 384-well clear plates in a volume of 200 μL (96-well) or 50 μL (384-well) at optimized densities ranging from 1,000 to 40,000 cells per well for 96-well plates or 1,200 to 25,000 cells per well for 384-well plates depending on cell-line. After 4-6 hr recovery, serially diluted compounds in DMSO were added to the cells using (0.1% v/v final DMSO concentration). Cells were then grown at 37° C. in a humidified incubator with 5% CO2 for 72 hr. A 20:1 [3-(4,5-dimethylthiazol-2-yl)-5-(3-carboxymethoxyphenyl)-2-(4-sulfophenyl)-2H-tetrazolium](MTS):phenazine methosulfate (PMS) solution in DPBS was made immediately before use, added to each well, and cells were incubated for 1.5 hr at 37° C. The absorbance at 490 nm was then measured using a platereader. Absorbance values were normalized as percent of control (cells incubated in the presence of 0.1% v/v DMSO). Sigmoidal dose-response curves were plotted using log(inhibitor) vs. response—Variable slope (four parameters) model with a top value constrained to 100% (GraphPad Prism version 6.00 for Windows, GraphPad Software, La Jolla California USA). […] Curves for compounds that reached a plateau were matched exactly to the measurement points. […] To determine potential of compounds of the invention to affect viability of hematological cancers, cell lines representing various tumor types were selected and tested. Human cell lines tested were: MOLM-13 (acute myeloid leukemia (AML)), MV4-11 (AML), U-2932 (ABC-diffuse large B cell lymphoma), U-937 (histiocytic lymphoma), U-266 (multiple myeloma), RPMI-8226 (multiple myeloma), CMK (megakaryoblastic cell line), SU-DHL-4 (GCB-diffuse large B cell lymphoma), KG1 (AML), Mec-1 (chronic B-cell leukemia), MOLM-16 (AML), Jeko (B-cell lymphoma), WSU-DLCL2 (B-cell lymphoma), JJN3 (plasma cell leukemia), SU-DHL-6 (GCB-diffuse large B cell lymphoma), and Z-138 (mantle cell lymphoma). In addition, two murine cell lines were tested: A20 […].

MV4-11 = experiment: MTS cell proliferation assay, MV4-11; type: cell-based, human; details: Homo sapiens, MV4-11, 72 h, read-out: MTS proliferation assay (μM)
Experimental: (§2) Cell proliferation was measured using the CellTiter 96 Aqueous Non-Radioactive Cell Proliferation Assay (Promega). […] MTS is bioreduced by cells into a formazan product that is soluble in tissue culture medium. The absorbance of the formazan product at 490 nm can be measured directly from assay plates without additional processing. The quantity of formazan product as measured by the amount of 490 nm absorbance is directly proportional to the number of living cells in culture. Cells were seeded into 96-well or 384-well clear plates in a volume of 200 μL (96-well) or 50 μL (384-well) at optimized densities ranging from 1,000 to 40,000 cells per well for 96-well plates or 1,200 to 25,000 cells per well for 384-well plates depending on cell-line. After 4-6 hr recovery, serially diluted compounds in DMSO were added to the cells using (0.1% v/v final DMSO concentration). Cells were then grown at 37° C. in a humidified incubator with 5% CO2 for 72 hr. A 20:1 [3-(4,5-dimethylthiazol-2-yl)-5-(3-carboxymethoxyphenyl)-2-(4-sulfophenyl)-2H-tetrazolium](MTS):phenazine methosulfate (PMS) solution in DPBS was made immediately before use, added to each well, and cells were incubated for 1.5 hr at 37° C. The absorbance at 490 nm was then measured using a platereader. Absorbance values were normalized as percent of control (cells incubated in the presence of 0.1% v/v DMSO). Sigmoidal dose-response curves were plotted using log(inhibitor) vs. response—Variable slope (four parameters) model with a top value constrained to 100% (GraphPad Prism version 6.00 for Windows, GraphPad Software, La Jolla California USA). […] To determine potential of compounds of the invention to affect viability of hematological cancers, cell lines representing various tumor types were selected and tested. […] In addition, two murine cell lines were tested: A20 […].

U-2932 = experiment: MTS cell proliferation assay, U-2932; type: cell-based; details: Homo sapiens, U2932; U-2932, 72 hr
Experimental: as §1

RPMI-8226 = experiment: MTS cell proliferation assay, RPMI-8226; type: cell-based; details: Homo sapiens; RPMI-8226, 72 hr
Experimental: as §1

Jeko = experiment: MTS cell proliferation assay, Jeko; type: cell-based; details: Homo sapiens, 72 hr
Experimental: as §1

A20 = experiment: MTS cell proliferation assay, A20; type: cell-based, murine; details: Mus musculus; A20, 72 hr
Experimental: as §1

C1498 = experiment: MTS cell proliferation assay, C1498; type: cell-based, murine; details: Mus musculus, C1498, 72 h, read-out: MTS proliferation assay (μM)
Experimental: as §2

MV4-11 cells = experiment: Induction of apoptosis (Annexin V / propidium iodide flow cytometry); type: cell-based, human
Experimental: Cells were seeded in a six-well tissue culture plate in 3 mL complete growth medium (3×10^5 cells/well) and allowed to equilibrate for 1 hr at 37° C. in a humidified incubator with 5% CO2. DMSO (control), test compound, or doxorubicin was added to the wells (0.1% final DMSO concentration). Cells were returned to the incubator for 24 hrs. On the day of analysis 1×10^5 cells were labeled according to manufacturer's instructions and analyzed by flow cytometry (BD FACSCaalibur™, GH) to determine the percent of apoptotic cells (annexin V positive, AV+) and/or apoptotic dead cells (AV+ and propidium iodide positive (PI+)).

P-AKT = experiment: Western blot, AKT phosphorylation in A20 cells; type: cell-based, murine
Experimental: For phosphoprotein analyses, cells were seeded into 10 cm petri dishes (10×10^6 cells/dish) in media supplemented with 10% FBS and penicillin/streptomycin. After cells recovered for 1 hr at 37° C., compounds were added in DMSO (0.1% final) and incubated for 4 or 24 hr at 37° C. Cells were then harvested by centrifugation and washed with cold PBS. Cell pellets were resuspended in cell extraction buffer (Invitrogen) supplemented with 2×Halt™ protease and phosphatase inhibitor cocktail (Thermo Scientific), 2 mM sodium orthovanadate, 10 mM EDTA and 4 mM PMSF. Samples were lysed by sonication and incubated on ice for 30 min. Cell debris was removed by centrifugation and protein concentrations were determined using the BCA Protein Assay Kit (Pierce). The clarified lysate was diluted in LDS sample buffer with reducing agent (Life Technologies). […] Gels were run at 110 V and proteins were transferred to a PVDF membrane. Membranes were blocked in TBS blocking buffer (Li-Cor Biosciences) for 1 hr. Primary antibodies (Cell Signaling, Sant Cruz Biotechnology) were added (1:1,000 dilution) in blocking buffer with 0.1% Tween-20 and 1:20,000 dilution of β-actin antibody and incubated for 14 hr at 4° C. Blots were washed in TBS-T. Label-conjugated goat anti-rabbit secondary antibody (IRdye® 800CW; Li-Cor Biosciences) was added in blocking buffer with 0.1% Tween-20 and 0.02% SDS and incubated for 1 hr. After washing in TBS-T followed by TBS, membranes were scanned on an Odyssey imaging system (Li-Cor Biosciences). Bands were quantitated using ImageJ.

P-PDK1 = experiment: Pathway modulation in MV4-11 tumor xenografts, pPDK1; type: in vivo, mice; details: MV4-11 tumors, IP 50 mg/kg
Description: MV4-11 cells propagated in vitro were implanted subcutaneous into the right flank of 9-week old female NCr nu/nu mice. On the day of implant, MV4-11 cells were harvested during log phase growth and resuspended in phosphate buffered saline (PBS) containing 50% Matrigel™ (BD Biosciences) at a concentration of 1×10^8 cells/mL. […] Two weeks after implantation, animals were assigned to individual groups of 3 animals with and average tumor volume of approximately 200 mm^3. […] Eight hours post-dose, full blood volume was collected by cardiac puncture under isoflurane anesthesia and tumors were excised and snapfrozen in liquid nitrogen and stored at −80° C. until further analysis. Tumors were pulverized in liquid nitrogen using a Biopulverizer and split into two sample tubes: one for Western blot analysis and one for analysis of compound levels by LC-MS/MS. […] For MS analysis, tumor samples were homogenized with a Virsonic 100 ultrasonic homogenizer. Each sample was first weighed, and then an appropriate volume of 20:80 methanol:water was added to make a 9 mL/gram sample. Samples were then homogenized on ice, and stored frozen until analysis. Standards were prepared in BALB/c mouse plasma or blank homogenized tumor tissue. Standards and samples were analyzed on a PE Sciex API4000 instrument and compound concentration was quantified and back-calculated to ng compound per g tumor tissue and converted to M concentration assuming 1 g tumor tissue equals 1 mL volume.

[1] = test system: hematologic tumor cell lines; experiment: MTS cell proliferation assay, panel of hematologic cancer cell lines; type: cell-based; details: 72 hrs, percent of control
Experimental: as §1

[2] = biological target: T1, Full-length phosphorylated PDK1 (Homo sapiens, UniProt O15530); experiment: FRET-based PIF-tide binding assay; details: 10 nM compound where stated, FIG. 13D
T1 sequence (O15530 1-556): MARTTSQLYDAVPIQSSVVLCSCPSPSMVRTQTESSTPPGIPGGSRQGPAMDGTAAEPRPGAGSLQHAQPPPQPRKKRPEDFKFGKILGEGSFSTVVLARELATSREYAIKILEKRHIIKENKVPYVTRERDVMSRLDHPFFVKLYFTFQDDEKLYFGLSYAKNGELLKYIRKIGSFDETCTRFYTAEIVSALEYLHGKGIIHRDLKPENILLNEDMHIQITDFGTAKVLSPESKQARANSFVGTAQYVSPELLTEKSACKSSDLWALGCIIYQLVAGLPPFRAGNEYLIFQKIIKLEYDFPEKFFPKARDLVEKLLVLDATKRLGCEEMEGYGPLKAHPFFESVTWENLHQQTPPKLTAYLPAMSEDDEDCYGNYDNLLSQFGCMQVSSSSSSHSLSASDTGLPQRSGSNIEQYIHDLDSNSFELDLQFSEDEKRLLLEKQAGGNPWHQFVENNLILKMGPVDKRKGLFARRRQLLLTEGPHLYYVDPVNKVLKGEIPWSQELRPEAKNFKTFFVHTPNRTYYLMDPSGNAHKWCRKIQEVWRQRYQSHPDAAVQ

CNc1nc(-c2ccc3c(N)n[nH]c3c2)cc(N2C[C@@H](C(=O)NC3CCCCC3)CC[C@H]2C)n1 [GSK2334470, reference compound]
EC50 (Molm-13): 360 nM | EC50 (MV4-11): 0.105 µM | EC50 (U-2932): 986 nM | EC50 (RPMI-8226): 2900 nM | EC50 (Jeko): 2250 nM | EC50 (A20): 490 nM | EC50 (C1498): 0.358 µM | apoptosis at 100 nM (MV4-11 cells; 100 nM): no evidence of apoptosis | concentration inducing apoptosis (MV4-11 cells; 24 hrs): > 300 nM | P-AKT levels (P-AKT): barely affected | pathway modulation and tumor exposure (P-PDK1): comparable to that of 50 mg/kg GDC0941 and 1 mg/kg Compound 1 or Compound 2

COc1cccc2c1C(=O)c1c(O)c3c(c(O)c1C2=O)C[C@@](O)(C(=O)CO)C[C@@H]3O[C@H]1C[C@H](N)[C@H](O)[C@H](C)O1 [doxorubicin, reference compound]
plateau of growth inhibition curve at higher concentrations [1]: < 20%

CN[C@@H]1C[C@H]2O[C@@](C)([C@@H]1OC)n1c3ccccc3c3c4c(c5c6ccccc6n2c5c31)C(=O)NC4 [staurosporine, reference compound]
FRET between PDK1 and PIF-tide [2]: does not inhibit FRET
